{
  "source": "patent US10196421B2",
  "about": "“Nucleophile-reactive sulfonated compounds for the (radio)labelling of (bio)molecules; precursors and conjugates thereof” (Advanced Accelerator Applications SA, priority 2012, dated 2019)",
  "assay": "solubility of Cy 5.5 before and after conjugation with the sulfonated prosthetic compound",
  "type": "physicochemical",
  "conditions": "unconjugated precursor",
  "source_text": "This fact confirms that the present invention enables to increase the hydrophilic character of the (bio)molecules conjugated therewith.",
  "data": [
    {"substance": "Cy 5.5", "values": [
      {"measurement": "solubility in water", "value": "water insoluble"}
    ]}
  ]
}
